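Step 1: Grow cells in 96-well plates. Step 2: Expose to compound for 48 hours at 5 concentrations. Step 3: Interpolate endpoints linearly; if unreached, use highest concentration. GI50 is the concentration that inhibits growth by half.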 Calls of active or inactive are those of the source. No stated cut-off is given here; in the data, active = GI50 up to about 1.1 µM and inactive = higher.
What was measured:
Experiment in all cases: NCI tumour cell line growth inhibition, 48 h
[1] = system: EKVX
[2] = system: SW-620
[3] = system: HCC 2998
[4] = system: A549
[5] = system: SR
[6] = system: SN12C
[7] = system: MDA-MB-435
[8] = system: TK-10
[9] = system: ACHN
[10] = system: NCI/ADR-RES
[11] = system: UACC-62
[12] = system: KM12
[13] = system: BT-549
[14] = system: MCF7
[15] = system: NCI-H522
[16] = system: U-251
[17] = system: HOP-92
[18] = system: SF-295
[19] = system: T47D
[20] = system: OVCAR-4

Compound | GI50 [1] | GI50 [2] | GI50 [3] | GI50 [4] | GI50 [5] | GI50 [6] | GI50 [7] | GI50 [8] | GI50 [9] | GI50 [10] | GI50 [11] | GI50 [12] | GI50 [13] | GI50 [14] | GI50 [15] | GI50 [16] | GI50 [17] | GI50 [18] | GI50 [19] | GI50 [20]
CCCCNc1nc(N)nc(Nc2ccc(Br)cc2)c1N=O | > 100 µM (inactive) | > 100 µM (inactive) | 87.7 µM (inactive) | 33.7 µM (inactive) | 6.43 µM (inactive) | 58.7 µM (inactive) | > 100 µM (inactive) | > 100 µM (inactive) | 60.3 µM (inactive) | 39.4 µM (inactive) | 62.7 µM (inactive) | > 100 µM (inactive) | 44.7 µM (inactive) | 74.6 µM (inactive) | 36.4 µM (inactive) | 31.1 µM (inactive) |  |  |  | 
COc1cc(Nc2nc3ccccc3nc2C(=O)O)cc(OC)c1OC | 30.1 µM (inactive) | > 100 µM (inactive) | 69.3 µM (inactive) | > 100 µM (inactive) | > 100 µM (inactive) | 74.1 µM (inactive) | > 100 µM (inactive) | 16.3 µM (inactive) | > 100 µM (inactive) | 23 µM (inactive) |  | > 100 µM (inactive) | 89.9 µM (inactive) |  | 46 µM (inactive) | > 100 µM (inactive) | 25.9 µM (inactive) | 23.9 µM (inactive) | 24.3 µM (inactive) | 
C/C(=N/NC(=S)Nc1cccc(Cl)c1)c1ccccn1 | 0.0977 µM (active) | 0.0324 µM (active) | 1.82 µM (inactive) | 0.802 µM (active) | < 0.0185 µM (active) | 0.255 µM (active) | 1.31 µM (inactive) | 0.322 µM (active) | 0.194 µM (active) | < 0.018 µM (active) | 0.202 µM (active) | 0.413 µM (active) | 1.82 µM (inactive) | 0.0151 µM (active) | 0.06 µM (active) | 0.0885 µM (active) | 1.18 µM (inactive) | 0.366 µM (active) |  | 1.05 µM (active)
CC(C)=CCC/C(C)=C/COC(C)(C)C1=CCC(C)CC1.CC(C)=CCC/C(C)=C/COC1CC(C)CCC1=C(C)C (stereo not drawn) | > 100 µM (inactive) | > 100 µM (inactive) | > 100 µM (inactive) | > 100 µM (inactive) | 18.9 µM (inactive) | > 100 µM (inactive) | > 100 µM (inactive) | > 100 µM (inactive) | > 100 µM (inactive) |  | > 100 µM (inactive) | > 100 µM (inactive) | > 100 µM (inactive) | 65.3 µM (inactive) | > 100 µM (inactive) | > 100 µM (inactive) | > 100 µM (inactive) | > 100 µM (inactive) |  | > 100 µM (inactive)
COC(=O)C1=C(O)CCCC(CCC(C)=O)=C1 | 83.2 µM (inactive) | 31.6 µM (inactive) | > 100 µM (inactive) | 95.3 µM (inactive) | 21.8 µM (inactive) | 41 µM (inactive) | 69.5 µM (inactive) | > 100 µM (inactive) | 32.4 µM (inactive) | > 100 µM (inactive) | 46 µM (inactive) | 80.2 µM (inactive) | > 100 µM (inactive) |  | 12.5 µM (inactive) | 43.2 µM (inactive) | 28.9 µM (inactive) | > 100 µM (inactive) | 35.6 µM (inactive) | 46.9 µM (inactive)
COc1nc2c(c(=O)[nH]1)N=C(c1ccccc1)CC(c1ccccc1)N2 (stereo not drawn) | 48.9 µM (inactive) | 35.7 µM (inactive) | 54.5 µM (inactive) | 55.6 µM (inactive) | > 10 µM (inactive) | 37 µM (inactive) | 59.7 µM (inactive) |  | 30.3 µM (inactive) | 27.3 µM (inactive) | 44.7 µM (inactive) | 30.7 µM (inactive) | 37.4 µM (inactive) | 42.2 µM (inactive) | 35.1 µM (inactive) | 44.9 µM (inactive) | 80.9 µM (inactive) | 49.1 µM (inactive) |  | 26.9 µM (inactive)
Cc1ccc(S(=O)(=O)n2cnc(CC(NC(=O)C3CCC(=O)N3C(=O)OCc3ccccc3)C(=O)N3CCCC3C(=O)NN)c2)cc1 (stereo not drawn) | > 100 µM (inactive) | > 100 µM (inactive) | > 100 µM (inactive) | > 100 µM (inactive) | > 100 µM (inactive) | > 100 µM (inactive) |  | > 100 µM (inactive) | > 100 µM (inactive) |  |  | > 100 µM (inactive) | > 100 µM (inactive) | > 100 µM (inactive) |  | > 100 µM (inactive) | > 100 µM (inactive) |  |  | 
NCC1Nc2ccccc2[C@@H](O)C1O (stereo partly drawn) | > 100 µM (inactive) | > 100 µM (inactive) | > 100 µM (inactive) | > 100 µM (inactive) | > 100 µM (inactive) | > 100 µM (inactive) | > 100 µM (inactive) | > 100 µM (inactive) | > 100 µM (inactive) | > 100 µM (inactive) | > 100 µM (inactive) | > 100 µM (inactive) |  | > 100 µM (inactive) |  | > 100 µM (inactive) | > 100 µM (inactive) | > 100 µM (inactive) | > 100 µM (inactive) | > 100 µM (inactive)

Reference: ChEMBL document CHEMBL1201862, “PubChem BioAssay data set” (2004)
